Columns and labels:
Type in all cases: in vivo
[1] = tested on: mice; test: Chimney test: ability of mice to back up and out of a vertical glass cylinder within 30 seconds; settings: Mus musculus, ip
Experimental: (§1) Sedative effects of 8-chloro-1-methyl-6-phenyl-4H-s-triazolo-[4,3-a][1,4]benzodiazepine are shown by the following tests in mice:
Chimney test: [Med. Exp. 4, 145 (1961)]: The effective intraperitoneal dosage for 50% of mice (ED50) is 0.09 mg./kg. The test determines the ability of mice to back up and out of a vertical glass cylinder within 30 seconds. At the effective dosage, 50% of the mice failed doing it.

[2] = tested on: mice; test: Dish test: mice remaining in Petri dish for more than 3 minutes; settings: Mus musculus
Experimental: as §1
Dish test: Mice in Petri dishes (10 cm. diameter, 5 cm. high, partially embedded in wood shavings), climb out in a very short time, when not treated. Mice remaining in the dish for more than 3 minutes indicates tranquilization. ED50 equals the dose of test compound at which 50% of the mice remain in the dish.

[3] = tested on: mice; test: Nicotine antagonism test (nicotine salicylate 2 mg./kg.); settings: Mus musculus
Experimental: Nicotine antagonism test: Mice in a group of 6 are injected with the test compound (8-chloro-1-methyl-6-phenyl-4H-s-triazolo[4,3-a][1,4]benzodiazepine). Thirty minutes later the mice including control (untreated) mice are injected with nicotine salicylate (2 mg./kg.). The control mice show overstimulation, i.e., (1) running convulsions followed by (2) tonic extensor fits; followed by (3) death.
Ni =]nicotine antagonism (3) test

[4] = tested on: mice; test: Pedestal test: mice staying on the pedestal for more than 1 minute; settings: Mus musculus
Experimental: as §1
Pedestal test: The untreated mouse leaves the pedestal in less than a minute to climb back to the floor of the standard mouse box. Tranquilized mice will stay on the pedestal for more than 1 minute. The ED50 (intraperitoneal administration) is 0.20 mg./kg.; the ED50 (oral administration) is 0.9 mg.kg.

[5] = tested on: mice; test: Antagonism to strychnine (as sulfate), 3 mg./kg. intraperitoneally; settings: Mus musculus, po, 4 h, read-out: effective dosage ED50, antagonism to strychnine
Experimental: Antagonism to strychnine (as sulfate): The effective dosage ED50 of 8-chloro-1-methyl-6-phenyl-4H-s-triazolo[4,3-a][1,4]benzodiazepine is 1 mg./kg. orally in mice. The test consists in orally administering into groups of 6 mice the test compound, 8-chloro-1-methyl-6-phenyl-4H-s-triazolo[4,3-a][1,4]benzodiazepine, and 30 minutes later 3 mg./kg. strychnine sulfate intraperitoneally. The survivors after 4 hours reflect the activity of the compound as a muscle relaxant and antispasmodic. A dosage of 3 mg./kg. of strychnine sulfate is routinely fatal to all the control mice.

[6] = intraperitoneal injection, table 1, read-out: ED50 Ch (chimney test)
[7] = ip, intraperitoneal injection, table 1, read-out: ED50 D (dish test)
[8] = ip, intraperitoneal injection, table 1, read-out: ED50 Ni (nicotine antagonism (3) test)
[9] = ip, intraperitoneal injection, table 1, read-out: ED50 P (pedestal test)

SMILES	ED50 [1, 6]	ED50 [2, 7]	ED50 [3, 8]	ED50 [4, 9]	ED50 ([1]; intraperitoneal, mice, read-out: effective intraperitoneal dosage for 50% of mice (ED50), chimney test)	ED50 ([2]; ip, intraperitoneal administration, mice, read-out: ED50, dish test)	ED50 ([2]; oral, mice, read-out: oral ED50, dish test)	ED50 ([3]; ip, intraperitoneal, 30 minutes before nicotine salicylate 2 mg./kg., mice, read-out: intraperitoneal dosage that protected 50% of the mice against (2) tonic extensor fits and (3) death (ED50))	ED50 ([3]; oral, before nicotine salicylate 2 mg./kg., mice, read-out: oral ED50, nicotine antagonism)	ED50 ([4]; ip, intraperitoneal administration, mice, read-out: ED50, pedestal test)	ED50 ([4]; oral administration, mice, read-out: ED50, pedestal test)	ED50 [5]
Cc1nnc2n1-c1ccc(C(F)(F)F)cc1C(c1ccccc1)=NC2 [1-methyl-6-phenyl-8-(trifluoromethyl)-4H-s-triazolo[4,3-a][1,4]benzodiazepine]	0.16 mg/kg	0.16 mg/kg	0.08 mg/kg	0.22 mg/kg	–	–	–	–	–	–	–	–
CCc1nnc2n1-c1ccc(Cl)cc1C(c1ccccc1)=NC2 [8-Chloro-1-ethyl-6-phenyl-4H-s-triazolo[4,3-a]-[1,4]benzodiazepine]	0.8 mg/kg	0.9 mg/kg	0.2 mg/kg	0.9 mg/kg	–	–	–	–	–	–	–	–
Cc1nnc2n1-c1ccc(Cl)cc1C(c1ccccc1Cl)=NC2 [8-Chloro-1-methyl-6-(o-chlorophenyl)-4H-s-triazolo[4,3-a][1,4]benzodiazepin]	0.05 mg/kg	0.028 mg/kg	0.008 mg/kg	0.045 mg/kg	–	–	–	–	–	–	–	–
Cc1nnc2n1-c1ccc(Cl)cc1C(c1c(F)cccc1F)=NC2 [8-chloro-1-methyl-6-(2,6-difluorophenyl)-4H-s-triazolo[4,3-a][1,4]benzodiazepine]	0.009 mg/kg	0.016 mg/kg	0.018 mg/kg	0.02 mg/kg	–	–	–	–	–	–	–	–
Cc1nnc2n1-c1ccc(Cl)cc1C(c1ccccc1F)=NC2 [8-chloro-1-methyl-6-(o-fluorophenyl)-4H-s-triazolo[4,3-a][1,4]benzodiazepine]	0.056 mg/kg	0.016 mg/kg	0.009 mg/kg	0.028 mg/kg	–	–	–	–	–	–	–	–
Cc1nnc2n1-c1ccc(Cl)cc1C(c1ccccc1)=NC2 [8-chloro-1-methyl-6-phenyl-4H-s-triazolo[4,3-a][1,4]benzodiazepine]	–	–	–	–	0.09 mg/kg	0.15 mg/kg	0.045 mg/kg	0.1 mg/kg	0.04 mg/kg	0.2 mg/kg	0.9 mg/kg	1 mg/kg
Clc1ccc2c(c1)C(c1ccccc1)=NCc1nncn1-2 [8-chloro-6-phenyl-4H-s-triazolo[4,3-a][1,4]benzodiazepine]	0.25 mg/kg	0.4 mg/kg	0.08 mg/kg	0.7 mg/kg	–	–	–	–	–	–	–	–
